Results on 19 compounds are retold here after patent US20230265104A1, “NOVEL HETEROCYCLIC COMPOUNDS” (PRISM BIOLAB CO., LTD., priority 2020, published 2023).

The assay concerns PANC-1 (human pancreatic cancer-derived cell line). Description: MTS assay on Panc-1 (human pancreas carcinoma cell line). The assay is classed as cell-based. To be noted: 144 h; for inhibition at 0.3125 µM: read-out: Growth inhibition (%) 0.3125 μM; for IC50: PANC-1, MTS method, cell survival 6 days after exposure, 4-parameter logistic fit; for inhibition at 0.15625 µM: read-out: Growth inhibition (%) 0.15625 μM. The gist of the method: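 Viability measured by MTS 6 days after treating human pancreatic carcinoma PANC-1 cells with compound serially diluted 2-fold in DMSO; absorbance 492–630 nm normalized to solvent control. Triplicate measurements averaged and fitted to a 4-parameter logistic curve.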
Background: Formazan colour is commonly taken as a measure of viable cells.

For `CC(C)C[C@H]1ON(C(=O)/C=C/c2ccc(-c3cccc(O)c3)cn2)[C@H]2CN(C3CCN(CCCCO)CC3)C(=O)[C@H](CC(C)(C)C)N2C1=O` [ID-80, (3R,6S,9aS)-8-(1-(4-hydroxybutyl)piperidin-4-yl)-1-((E)-3-(5-(3-hydroxyphenyl)pyridin-2-yl)acryloyl)-3-isobutyl-6-neopentyltetrahydropyrazino[2,1-c][1,2,4]oxadiazine-4,7(3H,6H)-dione], where the note is “PANC-1, MTS, 6 days, 0.625 μM, read-out: Growth inhibition (%) 0.625 μM”, the inhibition – broadly, the change of the read-out against control, counted positive when it falls – at 0.625 µM came out at 63.2%.
For `C#Cc1csc(/C=C/C(=O)N2O[C@H](CC(C)C)C(=O)N3[C@@H]2CN([C@H]2CCN(CCCCO)C2)C(=O)[C@@H]3CC(C)(C)C)n1` [ID-81, (3R,6S,9aS)-1-((E)-3-(4-ethynylthiazol-2-yl)acryloyl)-8-((S)-1-(4-hydroxybutyl)pyrrolidin-3-yl)-3-isobutyl-6-neopentyltetrahydropyrazino[2,1-c][1,2,4]oxadiazine-4,7(3H,6H)-dione], the inhibition at 0.3125 µM (PANC-1, MTS, 6 days) came to 69.6%.
In the case of `CC(C)C[C@H]1ON(C(=O)/C=C/c2nc(-c3cccnc3)cs2)[C@H]2CN([C@H]3CCN(CCCCO)C3)C(=O)[C@H](CC(C)(C)C)N2C1=O` [ID-82, (3R,6S,9aS)-8-((S)-1-(4-hydroxybutyl)pyrrolidin-3-yl)-3-isobutyl-6-neopentyl-1-((E)-3-(4-(pyridin-3-yl)thiazol-2-yl)acryloyl)tetrahydropyrazino[2,1-c][1,2,4]oxadiazine-4,7 (3H, 6H)-dione], the inhibition at 0.3125 µM (PANC-1, MTS, 6 days) amounted to 48.6%.
Turning to `CC(C)C[C@H]1ON(C(=O)/C=C/c2nc3ccccc3s2)[C@H]2CN(C3CCN(CCC(CO)CO)CC3)C(=O)[C@H](CC(C)(C)C)N2C1=O` [ID-83, (3R,6S,9aS)-1-((E)-3-(benzo[d]thiazol-2-yl)acryloyl)-8-(1-(4-hydroxy-3-(hydroxymethyl)butyl)piperidin-4-yl)-3-isobutyl-6-neopentyltetrahydropyrazino[2,1-c][1,2,4]oxadiazine-4,7(3H,6H)-dione], the inhibition at 0.3125 µM (PANC-1, MTS, 6 days) turned out to be 46.5%.
Turning to `CC(C)C[C@H]1ON(C(=O)/C=C/c2nc3ccccc3s2)[C@H]2CN(C3CN(CCCCO)C3)C(=O)[C@H](CC(C)(C)C)N2C1=O` [ID-84, (3R,6S,9aS)-1-((E)-3-(benzo[d]thiazol-2-yl)acryloyl)-8-(1-(4-hydroxybutyl)azetidin-3-yl)-3-isobutyl-6-neopentyltetrahydropyrazino[2,1-c][1,2,4]oxadiazine-4,7(3H,6H)-dione], half-maximal inhibition (IC50) required 110 nM. Also, the inhibition at 0.3125 µM (PANC-1, MTS, 6 days) is 88.9%.
For `CC(C)C[C@H]1ON(C(=O)/C=C/c2nc3c(O)cccc3s2)[C@H]2CN([C@H]3CCN(CCCCO)C3)C(=O)[C@H](CC(C)(C)C)N2C1=O` [ID-85, (3R,6S,9aS)-1-((E)-3-(4-hydroxybenzo[d]thiazol-2-yl)acryloyl)-8-((S)-1-(4-hydroxybutyl)pyrrolidin-3-yl)-3-isobutyl-6-neopentyltetrahydropyrazino[2,1-c][1,2,4]oxadiazine-4,7(3H,6H)-dione], the IC50 (as a rule, the concentration that inhibits the measured activity by half) was 110 nM. The inhibition at 0.15625 µM (PANC-1, MTS, 6 days) is 58.9%.
`CC(C)C[C@@H]1C(=O)N2[C@H](CN(C3CCN(C)CC3)C(=O)[C@@H]2Cc2ccccc2)N1C(=O)/C=C/c1nc2ccccc2s1` [ID-86, (2R,5S,8aR)-1-((E)-3-(benzo[d]thiazol-2-yl)acryloyl)-5-benzyl-2-isobutyl-7-(1-methylpiperidin-4-yl)tetrahydroimidazo[1,2-a]pyrazine-3,6(2H,5H)-dione]: the inhibition at 1.25 µM (PANC-1, MTS, 6 days, 1.25 μM, read-out: Growth inhibition (%) 1.25 μM) was found to be 50%.
`CC(C)C[C@H]1ON(C(=O)/C=C/c2nc(C#CC3(N)CC3)cs2)[C@H]2CN([C@H]3CCN(CCCCO)C3)C(=O)[C@H](CC(C)(C)C)N2C1=O` [ID-87, (3R, 6S, 9aS)-1-((E)-3-(4-((1-aminocyclopropyl)ethynyl)thiazol-2-yl)acryloyl)-8-((S)-1-(4-hydroxybutyl)pyrrolidin-3-yl)-3-isobutyl-6-neopentyltetrahydropyrazino[2,1-c][1,2,4]oxadiazine-4,7(3H,6H)-dione]: the inhibition at 0.3125 µM (PANC-1, MTS, 6 days) is 54.5%.
With `CC(C)C[C@H]1ON(C(=O)/C=C/c2nc(C#CCN(C)C)cs2)[C@H]2CN([C@H]3CCN(CCCCO)C3)C(=O)[C@H](CC(C)(C)C)N2C1=O` [ID-88, (3R,6S,9aS)-1-((E)-3-(4-(3-(dimethylamino)prop-1-yn-1-yl)thiazol-2-yl)acryloyl)-8-((S)-1-(4-hydroxybutyl)pyrrolidin-3-yl)-3-isobutyl-6-neopentyltetrahydropyrazino[2,1-c][1,2,4]oxadiazine-4,7(3H,6H)-dione], for the setting “PANC-1, MTS, 6 days”, the inhibition at 0.3125 µM is 38%.
In turn, `C#Cc1cnc(/C=C/C(=O)N2O[C@H](CC(C)C)C(=O)N3[C@@H]2CN([C@H]2CCN(CCCCO)C2)C(=O)[C@@H]3CC(C)(C)C)s1` [ID-89, (3R,6S,9aS)-1-((E)-3-(5-ethynylthiazol-2-yl)acryloyl)-8-((S)-1-(4-hydroxybutyl)pyrrolidin-3-yl)-3-isobutyl-6-neopentyltetrahydropyrazino[2,1-c][1,2,4]oxadiazine-4,7(3H,6H)-dione] came in with an IC50 of 180 nM. The inhibition at 0.3125 µM (PANC-1, MTS, 6 days) stood at 100%.
In the case of `CC(C)(C)C[C@H]1C(=O)N([C@@H]2CCN(CCCCO)C2)C[C@@H]2N(C(=O)/C=C/c3cnc4ccccc4n3)O[C@H](CC3CCCCC3)C(=O)N21` [ID-90, (3R, 6S, 9aS)-3-(cyclohexylmethyl)-8-((R)-1-(4-hydroxybutyl)pyrrolidin-3-yl)-6-neopentyl-1-((E)-3-(quinoxalin-2-yl)acryloyl)tetrahydropyrazino[2,1-c][1,2,4]oxadiazine-4,7(3H,6H)-dione], it took 210 nM to reach half-maximal inhibition (IC50). In addition, the inhibition at 0.3125 µM (PANC-1, MTS, 6 days) is 66%. For the same compound, the inhibition at 1 µM (PANC-1, MTS, 6 days, 1 μM, read-out: Growth inhibition (%) 1 μM) is 99%.
With `CC(C)C[C@H]1ON(C(=O)/C=C/c2nc(C#CCCCCCO)cs2)[C@H]2CN(C3CN(CCCCO)C3)C(=O)[C@H](CC(C)(C)C)N2C1=O` [ID-91, (3R,6S,9aS)-8-(1-(4-hydroxybutyl)azetidin-3-yl)-1-((E)-3-(4-(7-hydroxyhept-1-yn-1-yl)thiazol-2-yl)acryloyl)-3-isobutyl-6-neopentyltetrahydropyrazino[2,1-c][1,2,4]oxadiazine-4,7(3H,6H)-dione], the IC50 was 120 nM.
`CC(C)C[C@H]1ON(C(=O)/C=C/c2nc(C#CCCCCO)cs2)[C@H]2CN(C3CN(CCCCO)C3)C(=O)[C@H](CC(C)(C)C)N2C1=O` [ID-92, (3R,6S,9aS)-8-(1-(4-hydroxybutyl)azetidin-3-yl)-1-((E)-3-(4-(6-hydroxyhex-1-yn-1-yl)thiazol-2-yl)acryloyl)-3-isobutyl-6-neopentyltetrahydropyrazino[2,1-c][1,2,4]oxadiazine-4,7(3H,6H)-dione] gave an IC50 of 120 nM.
Take `CNC(=O)CCCC#Cc1csc(/C=C/C(=O)N2O[C@H](CC(C)C)C(=O)N3[C@@H]2CN([C@H]2CCN(CCCCO)C2)C(=O)[C@@H]3CC(C)(C)C)n1` [ID-93, 6-(2-((E)-3-((3R, 6S, 9aS)-8-((S)-1-(4-hydroxybutyl)pyrrolidin-3-yl)-3-isobutyl-6-neopentyl-4,7-dioxohexahydropyrazino[2,1-c][1,2,4]oxadiazin-1(6H)-yl)-3-oxoprop-1-en-1-yl)thiazol-4-yl)—N-methylhex-5-ynamide]: where the note is “PANC-1, MTS, 6 days”, the inhibition at 0.15625 µM was 37.4%.
Take `CC(C)C[C@H]1ON(C(=O)/C=C/c2nc(C#CC3CCOCC3)cs2)[C@H]2CN([C@@H]3CCN(CCCCO)C3)C(=O)[C@H](CC(C)(C)C)N2C1=O` [ID-94, (3R,6S,9aS)-8-((R)-1-(4-hydroxybutyl)pyrrolidin-3-yl)-3-isobutyl-6-neopentyl-1-((E)-3-(4-((tetrahydro-2H-pyran-4-yl)ethynyl)thiazol-2-yl)acryloyl)tetrahydropyrazino[2,1-c] [1,2,4]oxadiazine-4,7-(3H,6H)-dione]: the inhibition at 0.15625 µM (PANC-1, MTS, 6 days) worked out at 42.3%.
For the compound `CC(C)C[C@@H]1ON(C(=O)/C=C/c2nc3ccccc3s2)[C@@H]2CN([C@@H]3CCN(CCCCO)C3)C(=O)[C@H](CC(C)(C)C)N2C1=O` [ID-95, (3S,6S,9aR)-1-((E)-3-(benzo[d]thiazol-2-yl)acryloyl)-8-((R)-1-(4-hydroxybutyl)pyrrolidin-3-yl)-3-isobutyl-6-neopentyltetrahydropyrazino[2,1-c][1,2,4]oxadiazine-4,7(3H,6H)-dione], half-maximal inhibition (IC50) required 1400 nM.
As for `CC(C)C[C@H]1CN(C(=O)/C=C/c2nc3ccccc3s2)[C@H]2CN([C@@H]3CCN(CCCCO)C3)C(=O)[C@H](CC(C)(C)C)N2C1=O` [ID-96, (3S,6S,9aR)-1-((E)-3-(benzo[d]thiazol-2-yl)acryloyl)-8-((R)-1-(4-hydroxybutyl)pyrrolidin-3-yl)-3-isobutyl-6-neopentylhexahydro-4H-pyrazino[1,2-a]pyrimidine-4,7(6H)-dione], for the setting “PANC-1, MTS, 6 days”, the inhibition at 0.3125 µM was -1.7%. In addition, the inhibition at 10 µM (PANC-1, MTS, 6 days, 10 μM, read-out: Growth inhibition (%) 10 μM) was determined as 101%.
Take `CC(C)C[C@H]1ON(C(=O)/C=C/c2nc(C#CCOCCO)cs2)[C@H]2CN(C3CCN(C(C)C)CC3)C(=O)[C@H](CC(C)(C)C)N2C1=O` [ID-97, (3R,6S,9aS)-1-((E)-3-(4-(3-(2-hydroxyethoxy)prop-1-yn-1-yl)thiazol-2-yl)acryloyl)-3-isobutyl-8-(1-isopropylpiperidin-4-yl)-6-neopentyltetrahydropyrazino[2,1-c][1,2,4]oxadiazine-4,7 (3H, 6H)-dione]: the IC50 was 150 nM. For the same compound, the inhibition at 0.15625 µM (PANC-1, MTS, 6 days) was 51%.
`CC(C)C[C@H]1ON(C(=O)/C=C/c2nc3cc(O)ccc3s2)[C@H]2CN(C3CCN(C(C)C)CC3)C(=O)[C@H](CC(C)(C)C)N2C1=O` [ID-98, (3R,6S,9aS)-1-((E)-3-(5-hydroxybenzo[d]thiazol-2-yl)acryloyl)-3-isobutyl-8-(1-isopropylpiperidin-4-yl)-6-neopentyltetrahydropyrazino[2,1-c][1,2,4]oxadiazine-4,7(3H,6H)-dione]: the inhibition at 0.15625 µM (PANC-1, MTS, 6 days) was 61.7%.
